Values of other authors in publication PMC5260004, “Permeability across a novel microfluidic blood-tumor barrier model” (Fluids and Barriers of the CNS, 2017).

Tested on: P-gp
Set-up: method as in PMID 23916719
Conditions: in vivo, rhodamine 123 and an inhibitor of P-gp administered concurrently

fold higher dye accumulation in brain with P-gp inhibitor than in the absence of efflux inhibition: 10- to 12 fold
Structure (SMILES): COC(=O)c1ccccc1-c1c2ccc(=N)cc-2oc2cc(N)ccc12 [Rho123, Rhodamine 123]
